# Experimental data reported in ChEMBL document CHEMBL1201862, “PubChem BioAssay data set” (2004).
# Active and inactive are the calls of the source.
# How the values were obtained:
# [1] = biological target: T1, Lysosomal acid glucosylceramidase (Homo sapiens, UniProt P04062); test: Dose response cell-based high throughput screening assay to identify enhancers of beta-glucosidase activity. [Related pubchem assays: 784 ]; format: functional
# T1 sequence (P04062 whole entry): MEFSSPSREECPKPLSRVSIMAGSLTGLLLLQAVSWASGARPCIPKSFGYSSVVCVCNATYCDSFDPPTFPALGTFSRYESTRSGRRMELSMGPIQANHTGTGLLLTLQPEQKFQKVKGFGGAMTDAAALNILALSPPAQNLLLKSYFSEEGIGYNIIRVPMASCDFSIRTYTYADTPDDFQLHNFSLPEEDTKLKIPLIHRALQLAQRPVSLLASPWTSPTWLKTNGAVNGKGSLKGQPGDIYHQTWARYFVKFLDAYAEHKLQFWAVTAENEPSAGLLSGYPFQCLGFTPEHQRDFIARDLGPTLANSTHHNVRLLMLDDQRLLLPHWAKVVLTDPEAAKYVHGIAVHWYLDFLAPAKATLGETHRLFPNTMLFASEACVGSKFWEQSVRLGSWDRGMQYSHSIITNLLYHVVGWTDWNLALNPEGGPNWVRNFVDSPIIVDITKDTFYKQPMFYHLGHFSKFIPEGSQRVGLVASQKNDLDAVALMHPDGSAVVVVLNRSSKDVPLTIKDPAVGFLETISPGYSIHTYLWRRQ
# Cytochrome P450 3A4 = Cytochrome P450 3A4 (Homo sapiens, UniProt P08684); conditions: Potency;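 further: confirmatory qHTS run detecting inhibitors and substrates of CYP3A4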
# [2] = biological target: DNA dC->dU-editing enzyme APOBEC-3G (Homo sapiens, UniProt Q9HC16); test: Dose Response confirmation of small molecule APOBEC3G DNA Deaminase Inhibitors via a fluorescence-based single-stranded DNA deaminase assay. [Related pubchem assays (depositor defined):AID493012, AID493028]; format: functional
# [3] = biological target: T2, Ubiquitin-conjugating enzyme E2 N (Homo sapiens, UniProt P61088); format: functional
# T2 sequence (P61088 whole entry): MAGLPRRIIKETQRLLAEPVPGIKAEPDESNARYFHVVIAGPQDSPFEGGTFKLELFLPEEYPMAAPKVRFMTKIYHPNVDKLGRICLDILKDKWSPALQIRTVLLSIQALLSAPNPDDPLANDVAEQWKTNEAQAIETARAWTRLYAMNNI
# [4] = Luminescence Cell-Based Dose Retest to Confirm Inhibitors of Cancer Stem Cells. [Related pubchem assays (depositor defined):AID2717, AID2721]; format: functional; conditions: Homo sapiens
# [5] = biological target: Neurotensin receptor type 1 (Homo sapiens, UniProt P30989); format: functional;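 further: Image-based confirmatory dose-response assay measuring agonist activity at NTR1; NTR1-expressing U2OS osteosarcoma cells imaged for beta-arrestin GFP spot formation; agonist potency where compounds increase beta-arrestin recruitment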
# Bcl-2-like protein 10 = biological target: T3, Bcl-2-like protein 10 (Homo sapiens, UniProt Q9HD36); test: displacers of TR3 peptide from Bcl-B, primary screen, selectivity assay for Bfl-1 inhibitor project, biochemical, fluorescence polarization, FITC-TR3 peptide (AID 748);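 further: fluorescence polarization from a fluorescein-labelled TR3 peptide binding purified Bcl-B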
# T3 sequence (Q9HD36 whole entry): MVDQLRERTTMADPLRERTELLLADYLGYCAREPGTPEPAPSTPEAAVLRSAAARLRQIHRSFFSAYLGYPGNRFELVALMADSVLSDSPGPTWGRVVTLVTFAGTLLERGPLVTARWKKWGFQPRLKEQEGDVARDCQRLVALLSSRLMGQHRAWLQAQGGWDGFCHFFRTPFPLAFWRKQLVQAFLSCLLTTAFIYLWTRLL
# [6] = biological target: Glyceraldehyde-3-phosphate dehydrogenase (Homo sapiens, UniProt P04406)
# [7] = biological target: T2, Ubiquitin-conjugating enzyme E2 N; format: functional; remark: listed apart in the source
# Bcl-2-related protein A1 = biological target: T4, Bcl-2-related protein A1 (Mus musculus, UniProt Q07440); format: functional;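 further: confirmatory dose–response counterscreen on Bfl-1, used to check hits from a UBC13 polyubiquitin inhibitor campaign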
# T4 sequence (Q07440 whole entry): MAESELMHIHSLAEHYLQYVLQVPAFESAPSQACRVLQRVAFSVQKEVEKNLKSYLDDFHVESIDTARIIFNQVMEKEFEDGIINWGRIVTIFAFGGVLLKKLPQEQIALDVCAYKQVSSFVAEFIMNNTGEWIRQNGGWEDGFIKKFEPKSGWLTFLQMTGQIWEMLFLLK
# [8] = biological target: Nucleotide-binding oligomerization domain-containing protein 2 (Homo sapiens, UniProt Q9HC29); test: NOD2 signaling inhibitors, cell-based, luminescence, uHTS, HEK293 (AID 1566); format: functional
# [9] = test system: Streptococcus sp. 'group A'; test: growth inhibition of control SK(-) GAS strain, dose response, counter-screen for streptokinase expression inhibitor project, luminescence, kanamycin, BacTiterGlo, confirmation (AID 1900); format: functional, organism-based
# [10] = C. albicans growth with fluconazole, confirmation, fluorescence, retest (AID 2467); format: functional, cell-based
# Streptococcus = test: Group A Streptococcus viability loss, dose response, counter-screen for streptokinase expression inhibitor project, luminescence, BacTiterGlo (AID 1915); format: functional, organism-based;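 further: potency for reduction of bacterial viability or growth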
# cells [11] = format: functional, cell-based
# [12] = NIH-3T3 fibroblast cytotoxicity, dose response, cytotoxicity control, cell-based, fluorescence, Alamar Blue, secondary assay (AID 2327); format: functional;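 further: NIH-3T3 mouse fibroblasts cultured with fluconazole at 8 µg/mL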
# HEK293 [13] = test: NOD2 signaling inhibitors in MDP-stimulated cells, cell-based, uHTS, luminescence (AID 2001); format: functional; conditions: Homo sapiens
# HEK293 [14] = test: NOD1 signaling inhibitors, primary screen, cell-based, luminescence, uHTS (AID 1578); format: functional; conditions: Homo sapiens
# HEK293 [15] = test: cells; format: functional, cell-based; conditions: Homo sapiens
# cells [16] = format: functional, cell-based; remark: listed apart in the source
# INS1 = test: beta cell apoptosis inhibitors, cytokine rescue, dose response, luminescence, retest (AID 449756); format: functional, cell-based; conditions: Rattus norvegicus;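 further: cell death triggered by IL-1 beta plus TNF-alpha plus IFN-gamma mixture; protective hits raise ATP signal compared with cytokine alone wells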
# HEK293 [17] = test: cells; format: functional, cell-based; conditions: Homo sapiens; remark: listed apart in the source
# [18] = biological target: G-protein coupled receptor 55 (Homo sapiens, UniProt Q9Y2T6); test: GPR55 agonists via beta-arrestin recruitment, primary screen, imaging, U2OS cells, beta-arrestin-GFP redistribution (AID 1961); format: functional
# [19] = HEp-2 cell cytotoxicity, dose response, cytotoxicity control for RSV inhibitor project, HTS (AID 2410); format: functional; conditions: human respiratory syncytial virus
# Troponin, cardiac muscle = Troponin, cardiac muscle (Homo sapiens, UniProt P19429+P45379+P63316); test: Fluorescence-based biochemical high throughput dose response assay for activators of the calcium sensitivity of cardiac Regulated Thin Filaments (RTF). [Related pubchem assays (depositor defined):AID493008, AID493018, AID504382, AID504383]; format: protein-complex assay
# [20] = inhibitors of intracellular T. cruzi replication, confirmation, NIH3T3 host cells, beta-gal luminescence (AID 2044); format: functional, cell-based;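 further: intracellular parasites grown in NIH/3T3 mouse fibroblasts as host cells; luminescent beta-galactosidase reporter signal from transgenic T. cruzi replicating inside host cells; inhibitors lower the luminescence signal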
# Cytochrome P450 1A2 = biological target: T5, Cytochrome P450 1A2 (Homo sapiens, UniProt P05177);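 further: PubChem cytochrome P450 panel assay, CYP1A2 panel member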
# T5 sequence (P05177 whole entry): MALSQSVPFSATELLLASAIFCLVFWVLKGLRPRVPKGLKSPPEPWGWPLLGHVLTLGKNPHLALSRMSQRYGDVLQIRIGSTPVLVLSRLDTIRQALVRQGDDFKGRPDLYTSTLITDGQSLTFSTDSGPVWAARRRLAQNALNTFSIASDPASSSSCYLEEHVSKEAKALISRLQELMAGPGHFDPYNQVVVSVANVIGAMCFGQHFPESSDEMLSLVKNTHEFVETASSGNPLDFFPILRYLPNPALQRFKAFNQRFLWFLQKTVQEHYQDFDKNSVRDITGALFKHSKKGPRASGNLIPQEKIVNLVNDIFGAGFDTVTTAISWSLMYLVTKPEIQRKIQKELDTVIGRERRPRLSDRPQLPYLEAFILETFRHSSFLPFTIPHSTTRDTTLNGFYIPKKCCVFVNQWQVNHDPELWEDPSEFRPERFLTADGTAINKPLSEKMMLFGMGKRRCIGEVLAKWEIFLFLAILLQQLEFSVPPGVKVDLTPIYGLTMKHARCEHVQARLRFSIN
# [21] = cytotoxicity toward NIH3T3 fibroblasts, dose response, counter-screen, cell-based, ATP luminescence, mouse fibroblasts (AID 2010); format: functional;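 further: cells exposed to compound for about 90 hours before reading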
# [22] = biological target: Induced myeloid leukemia cell differentiation protein Mcl-1 (Homo sapiens, UniProt Q07820); format: functional
# [23] = microbe, parasite or virus in culture; format: functional; conditions: Mycobacterium tuberculosis
# [24] = biological target: Heat shock protein HSP 90-alpha (Homo sapiens, UniProt P07900); format: functional, organism-based
# cells [25] = format: functional
# [26] = THP-1 cell cytotoxicity, dose response, cytotoxicity control for non-replicating M. tuberculosis project (AID 489025); format: functional
# [27] = Vero E6 cell cytotoxicity, dose response, cytotoxicity control for non-replicating M. tuberculosis project, secondary assay (AID 492998); format: functional, VeroE6; conditions: Vero C1008
structure (smiles),measurement,setting,value
Cc1ccccc1OCC(=O)N(Cc1cccs1)C1CCS(=O)(=O)C1 (stereo unspecified),EC50,[1],> 50 µM (not active)
CCOC(=O)c1c(C)cc(OC)cc1O [ETHYL EVERNINATE],AC50,Cytochrome P450 3A4,31.6 µM (inconclusive)
Cc1[nH]c(=O)[nH]c(=S)c1C(=O)Nc1ccc(Cl)c(Cl)c1,IC50,[2],9.67 µM (active)
CC1CCN(CCCNC(=O)c2ccc3c(=O)n(Cc4ccc(Cl)cc4)c(=S)[nH]c3c2)CC1,IC50,[3],> 20 µM (inactive)
same,AC50,[4],6.37 µM (active)
same,EC50,[5],17.9 µM (active)
Cc1cc(C)nc(Nc2ccc(N3CCCC3)cc2)n1,IC50,Bcl-2-like protein 10,61.9 µM (inactive)
O=C(O)CSc1nc(-c2ccccc2)cs1,IC50,[6],> 100 µM (not active)
COc1ccc(N)c(OC)c1,AC50,Cytochrome P450 3A4,25.1 µM (inconclusive)
O=C(CSCc1ccc([N+](=O)[O-])cc1)N/N=C/c1ccncc1,IC50,[7],> 20 µM (inactive)
same,IC50,[3],17.3 µM (active)
same,IC50,Bcl-2-related protein A1,> 20 µM (inactive)
COc1cccc(/C=N/NC(=O)c2c(C)nc3ccc(Cl)cn23)c1O,EC50,[8],> 20 µM (inactive)
same,EC50,[9],3.25 µM (active)
same,EC50,[10],1.36 µM (active)
same,EC50,Streptococcus,7.14 µM (active)
same,EC50,cells [11],6.42 µM (active)
same,EC50,[12],> 160 µM (inactive)
same,IC50,HEK293 [13],> 20 µM (inactive)
same,EC50,HEK293 [14],> 20 µM (inactive)
same,IC50,HEK293 [15],> 20 µM (inactive)
same,EC50,cells [16],> 350 µM (not active)
same,AC50,INS1,0.879 µM (active)
same,IC50,HEK293 [17],> 20 µM (inactive)
CN1C[C@@H]2C(c3ccc(Cl)nc3)C3(c4ccc(C#N)cc4)CC2(C3)[C@H]1c1ccccc1 (stereo partly specified),AC50,Cytochrome P450 3A4,15.8 µM (inconclusive)
O=C(c1ccc(S(=O)(=O)N2CCCC2)cc1)N1CCC(CN2C(=O)c3cccc4cccc(c34)C2=O)CC1,IC50,[7],8.21 µM (active)
same,IC50,[3],6.28 µM (active)
same,IC50,Bcl-2-related protein A1,> 20 µM (inactive)
CCOc1ccc(C2CC(c3c(O)oc4ccccc4c3=O)=NN2c2ccccc2)cc1OC (stereo unspecified),EC50,[18],8.61 µM (active)
CCOC(=O)c1nnc(-c2ccc(C)cc2)nc1Oc1ccc(Cl)cc1Cl,CC50,[19],14.1 µM (active)
same,EC50,[18],12.4 µM (inactive)
C=CCn1c(S)nnc1-c1c[nH]c2ccccc12,EC50,[1],> 50 µM (not active)
O=C(O)c1ccccc1CSc1nnnn1-c1ccccc1,EC50,"Troponin, cardiac muscle",> 71.5 µM (inactive)
Cc1nc(NC(=O)c2ccco2)sc1-c1csc(Nc2ccc(Cl)cc2Cl)n1,IC50,Bcl-2-like protein 10,> 100 µM (inactive)
same,EC50,[20],0.537 µM (active)
same,AC50,Cytochrome P450 1A2,15.8 µM (inconclusive)
same,EC50,[21],> 60 µM (not active)
same,IC50,[22],1.56 µM (active)
Nc1ccccc1C#CC(=O)c1ccccc1,CC50,[23],16.9 µM (active)
same,AC50,[24],5.42 µM (active)
same,IC50,cells [25],4.2 µM (active)
same,CC50,[26],23.5 µM (active)
same,EC50,[5],8.09 µM (active)
same,AC50,INS1,7.81 µM (active)
same,CC50,[27],17.4 µM (active)
C=CCOc1ccc(Br)cc1CNCC,EC50,"Troponin, cardiac muscle",> 71.5 µM (inactive)
